The results in this text go back to paper PMC11783400, “Assessment of Potential Drug–Drug Interactions for Novel Oral Melanocortin‐1 Receptor Agonist Dersimelagon” (Pharmacology Research & Perspectives, 2025).

For one series, the target named is T1, CYP3A4 (Table 1); CYP3A (Homo sapiens, UniProt P08684).
T1 construct: native enzyme in human liver microsomes
The series is described as follows: CYP activity inhibition in human liver microsomes. The conditions noted are these: read-out: IC50 (μM) / Direct inhibition. Format: biochemical. An excerpt:
CYP activity inhibition in human liver microsomes on CYP3A4 (Table 1); CYP3A (text)
A general note: Liver microsomes are a subcellular fraction often used to study metabolism.

The next series has as its target T2, OCT2 (Homo sapiens, UniProt O15244).
T2 construct: gene SLC22A2; expressed in HEK293 cells
T2 sequence (O15244 1-555): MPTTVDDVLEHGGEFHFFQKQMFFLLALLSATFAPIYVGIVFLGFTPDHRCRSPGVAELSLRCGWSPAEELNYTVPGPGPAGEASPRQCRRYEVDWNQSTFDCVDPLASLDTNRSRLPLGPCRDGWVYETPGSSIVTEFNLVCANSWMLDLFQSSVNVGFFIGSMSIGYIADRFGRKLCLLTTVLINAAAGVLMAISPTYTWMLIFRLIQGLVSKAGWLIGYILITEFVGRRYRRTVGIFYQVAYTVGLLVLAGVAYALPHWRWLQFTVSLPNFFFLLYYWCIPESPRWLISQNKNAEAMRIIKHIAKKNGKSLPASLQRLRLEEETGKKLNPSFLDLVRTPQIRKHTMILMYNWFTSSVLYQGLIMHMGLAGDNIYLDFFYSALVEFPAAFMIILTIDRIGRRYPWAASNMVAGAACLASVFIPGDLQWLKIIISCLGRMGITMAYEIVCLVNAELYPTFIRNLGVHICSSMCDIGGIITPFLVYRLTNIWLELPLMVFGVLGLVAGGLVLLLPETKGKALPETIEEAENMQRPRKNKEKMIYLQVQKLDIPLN
The series can be described thus: uptake inhibition in HEK293 cells expressing the transporter. In kind it is cell-based. From the text:
uptake inhibition in HEK293 cells expressing the transporter on OCT2

The next series addresses T3, OATP1B1 (Homo sapiens, UniProt Q9Y6L6).
T3 construct: gene SLCO1B1; expressed in HEK293 cells
T3 sequence (Q9Y6L6 1-691): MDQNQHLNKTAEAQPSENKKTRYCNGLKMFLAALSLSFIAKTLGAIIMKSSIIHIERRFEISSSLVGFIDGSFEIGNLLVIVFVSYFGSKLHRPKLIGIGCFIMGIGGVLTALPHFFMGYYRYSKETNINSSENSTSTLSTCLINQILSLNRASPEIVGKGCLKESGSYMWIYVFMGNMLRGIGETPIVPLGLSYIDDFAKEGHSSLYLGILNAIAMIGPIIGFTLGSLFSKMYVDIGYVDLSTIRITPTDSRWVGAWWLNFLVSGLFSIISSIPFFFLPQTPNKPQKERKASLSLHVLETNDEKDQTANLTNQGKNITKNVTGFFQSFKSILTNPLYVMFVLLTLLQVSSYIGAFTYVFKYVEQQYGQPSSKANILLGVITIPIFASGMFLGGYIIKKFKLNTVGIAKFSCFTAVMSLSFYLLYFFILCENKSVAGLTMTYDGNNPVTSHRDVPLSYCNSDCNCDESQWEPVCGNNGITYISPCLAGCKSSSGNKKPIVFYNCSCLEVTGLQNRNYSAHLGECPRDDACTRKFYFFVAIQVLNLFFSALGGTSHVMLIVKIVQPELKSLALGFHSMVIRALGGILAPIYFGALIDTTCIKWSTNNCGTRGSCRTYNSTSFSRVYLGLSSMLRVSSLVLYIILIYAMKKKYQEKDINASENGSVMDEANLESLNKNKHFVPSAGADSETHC
The description is as above. In kind it is cell-based. From the text: uptake inhibition in HEK293 cells expressing the transporter on OATP1B1

In a further series the target is T4, CYP2C8 (Homo sapiens, UniProt P10632).
T4 construct: native enzyme in human liver microsomes
T4 sequence (P10632 1-490): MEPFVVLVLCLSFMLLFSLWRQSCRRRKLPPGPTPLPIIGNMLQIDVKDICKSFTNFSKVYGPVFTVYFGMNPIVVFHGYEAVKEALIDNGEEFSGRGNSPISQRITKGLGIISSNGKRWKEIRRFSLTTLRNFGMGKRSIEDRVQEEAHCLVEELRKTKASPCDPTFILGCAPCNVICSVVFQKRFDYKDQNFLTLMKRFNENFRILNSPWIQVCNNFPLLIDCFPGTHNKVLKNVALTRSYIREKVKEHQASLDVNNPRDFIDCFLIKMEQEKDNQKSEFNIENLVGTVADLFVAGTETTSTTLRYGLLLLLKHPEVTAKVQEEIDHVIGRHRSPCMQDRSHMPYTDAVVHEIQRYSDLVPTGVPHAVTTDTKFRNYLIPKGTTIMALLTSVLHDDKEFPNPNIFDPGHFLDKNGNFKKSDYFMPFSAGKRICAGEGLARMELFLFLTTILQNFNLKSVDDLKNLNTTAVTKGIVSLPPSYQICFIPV
The series is described as follows: CYP activity inhibition in human liver microsomes. Format: biochemical. As to conditions: read-out: IC50 (μM) / Direct inhibition. From the text:
CYP activity inhibition in human liver microsomes on CYP2C8

The next series addresses T5, UGT1A3 (Homo sapiens, UniProt P35503).
T5 construct: native enzyme in human liver microsomes
T5 sequence (P35503 29-534): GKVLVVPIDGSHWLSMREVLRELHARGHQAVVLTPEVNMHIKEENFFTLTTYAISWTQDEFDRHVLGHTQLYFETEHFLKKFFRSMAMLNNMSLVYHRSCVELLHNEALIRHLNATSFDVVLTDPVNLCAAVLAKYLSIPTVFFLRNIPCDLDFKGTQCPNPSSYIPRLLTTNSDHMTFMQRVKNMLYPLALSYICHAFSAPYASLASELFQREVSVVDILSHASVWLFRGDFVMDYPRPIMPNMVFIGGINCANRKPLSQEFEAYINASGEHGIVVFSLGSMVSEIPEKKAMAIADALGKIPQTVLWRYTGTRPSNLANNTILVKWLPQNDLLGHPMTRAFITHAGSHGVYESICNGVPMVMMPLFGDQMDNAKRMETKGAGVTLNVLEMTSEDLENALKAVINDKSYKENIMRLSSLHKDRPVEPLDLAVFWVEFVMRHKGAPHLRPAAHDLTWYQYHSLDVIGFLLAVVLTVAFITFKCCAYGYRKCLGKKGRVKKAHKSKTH
The series is described as follows: glucuronidation inhibition in human liver microsomes. Format: biochemical. The conditions noted are these: substrate chenodeoxycholic acid; direct inhibition. An excerpt:
glucuronidation inhibition in human liver microsomes on UGT1A3

Some results are limits rather than exact numbers.

T1 sequence (P08684 2-503): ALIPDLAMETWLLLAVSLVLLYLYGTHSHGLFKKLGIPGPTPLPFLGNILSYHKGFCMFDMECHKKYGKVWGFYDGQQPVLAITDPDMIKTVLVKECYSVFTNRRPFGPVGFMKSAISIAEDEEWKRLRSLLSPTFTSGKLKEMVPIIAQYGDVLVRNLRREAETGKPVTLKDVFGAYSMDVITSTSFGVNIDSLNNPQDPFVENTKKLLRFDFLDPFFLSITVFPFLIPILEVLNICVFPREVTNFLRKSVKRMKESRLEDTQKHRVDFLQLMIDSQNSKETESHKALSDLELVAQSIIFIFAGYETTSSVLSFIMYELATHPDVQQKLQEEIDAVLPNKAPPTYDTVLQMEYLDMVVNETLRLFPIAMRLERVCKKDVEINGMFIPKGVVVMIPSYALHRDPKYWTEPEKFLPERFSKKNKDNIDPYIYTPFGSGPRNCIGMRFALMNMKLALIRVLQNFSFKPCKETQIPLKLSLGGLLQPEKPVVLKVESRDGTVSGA

Take `COC[C@H]1CN(C(=O)[C@]2(F)CN(C3CCCC3)C[C@H]2c2ccc(OC)cc2)C[C@@H]1c1ccc(C(F)(F)F)cc1N1CCC(C(=O)O)CC1` [dersimelagon]: the IC50 on CYP3A4 (Table 1); CYP3A was 74.6 µM; against OCT2, > 28.7 µM; on OATP1B1, 158 nM; at CYP2C8 it was 24.2 µM; against UGT1A3, 22.6 µM.
